# Reference: patent US20230414609A1, “USES OF ORAI1-SPECIFIC CALCIUM CHANNELS IN TREATMENT OF ORAL CANCER” (New York University, priority 2022, published 2023)
# Entries after “also recorded” stand apart in the source; their conditions may differ.
# Assays:
# [1] = tested on: MMP1 gene expression in HSC-3 cells; assay: qRT-PCR of MMP1 gene expression in HSC-3 cells; format: cell-based, human
# Experimental: (D) is a schematic of the Boyden chambers and solutions used to quantify cell invasion. DOK cells overexpressing ORAI1 (O1) and STIM1 (S1) were seeded in the top chamber with 2% FBS. Media in the bottom chamber contained 10% FBS.
# The role of ORAI1 in oral cancer progression was further elucidated by examining the expression of oncogenes in oral cancer, such as MMP1^9,27, as a proof of concept. We first verified the expression of MMP1 in HaCaT, DOK and HSC-3 cells by qRT-PCR analysis. All cells expressed MMP1 in the order oral cancer HSC-3 cells>dysplastic DOK cells>HaCaT cells (FIG. 2A). We next stimulated HSC-3 cells using different concentrations of CPA to examine changes in MMP1 gene expression mediated by SOCE activation. […] These findings were further supported by the decrease in the expression of MMP1 seen in HSC-3 cells with ORAI1 knockdown or deletion. Because in many cells SOCE activation targets the phosphorylation of the transcription factor NFAT (nuclear factor of activated T cells) and its downstream effectors ^28, and because a previous study implicated NFAT in regulating stemness in oral cancer cells ^16, we next interrogated if the transcriptional up-regulation of MMP1 was downstream of NFAT. We first verified the expression of NFAT isoforms (NFAT1-4) in HaCaT, DOK and HSC-3 cells by qRT-PCR analysis showing that NFAT4 (coded by NFATc3) was the most abundant transcript.
# TRPV1 = target: T1, TRPV1 (Homo sapiens, UniProt Q8NER1); assay: Stimulation of TRPV1 in HSC-3 cells, cytosolic Ca2+; format: cell-based; conditions: TRPV1 agonist, in the presence of Ca2+
# T1 construct: Stimulation of transient receptor channels TRPM7, TRPA1 and TRPV1 in HSC-3 cells; endogenous in cells; host or cells: HSC-3 (human oral squamous cell carcinoma)
# TRPM7 = target: T2, TRPM7 (Homo sapiens, UniProt Q96QT4); assay: Stimulation of TRPM7 in HSC-3 cells, cytosolic Ca2+; format: cell-based; conditions: TRPM7 agonist, in the presence of Ca2+
# T2 construct: Stimulation of transient receptor channels TRPM7, TRPA1 and TRPV1 in HSC-3 cells; endogenous in cells; host or cells: HSC-3 (human oral squamous cell carcinoma)
# Excerpt: (§1) To investigate SOCE in oral cancer cells, we first used qRT-PCR analysis to analyze the expression of ORAI1-3 in the human oral squamous cell carcinoma (OSCC) cell lines HSC-3 and SCC-9, in the dysplastic oral keratinocytes DOK cells, and in spontaneously transformed normal keratinocytes HaCaT cells. […] Next, we tested whether these cells had functional SOCE by stimulating them with cyclopiazonic acid (CPA), a reversible blocker of the sarco-endoplasmic reticulum Ca^2+ ATPase (SERCA) pump that passively depletes the ER Ca^2+ stores inducing STIM1/ORAI1 coupling and SOCE activation ^22,23. […] We also examined the contribution of other channels that have been implicated in Ca^2+ influx in various cancer cells.
# SOCE in HSC-3 cells = assay: SOCE ([Ca2+]cyto) after CPA stimulation in HSC-3 cells; format: cell-based, human; conditions: in the presence of the blocker
# Experimental: FIG. 1: (A) Heatmap contrast of average variance stabilizing transformation (VST) of ORAI1, ORAI2 and ORAI3 genes between normal (control: N=3 samples) and tongue cancer patients (N=10 samples). Statistical significance was analyzed using the Benjamini-Hochberg FDR (5%) and fold change of 1.5. Both FDR values and fold change were generated using DESeq2. (B-D) show haematoxylin and eosin (H&E) staining (left) and immunofluorescence staining of ORAI1 (right) in the boxed areas of tongue tissue sections showing normal (B), dysplastic (C) and invasive tumor (D) phenotypes. Nuclear staining by 4′,6-diamidino-2-phenylindole (DAPI) is shown in blue. Scale bar, 200 μm. […] (H) and (J) show qRT-PCR analyses of ORAI1 gene expression by the 2^−ΔΔCT method comparing control (scrambled shRNA) and shORAI1 (ORAI1 KD) HSC-3 cells (H) or CRISPR/Cas9 ORAI1 (ORAI1 KO) (J). (I) and (K) show [Ca^2+]cyto measurements comparing control HSC-3 cells compared to shORAI1 (ORAI1 KD) (I) or compared to CRISPR/Cas9 ORAI1 (ORAI1 KO) (K) (left). Quantification of SOCE corrected for baseline Ca^2+ levels as Δpeak (F−F0) (right). (L) and (M) show cell proliferation measured using MTS comparing control HSC-3 cells compared to shORAI1 (ORAI1 KD) (L) or compared to CRISPR/Cas9 ORAI1 (ORAI1 KO) (M). […]
# SOCE in SCC-9 cells = assay: SOCE ([Ca2+]cyto) after CPA stimulation in SCC-9 cells; format: cell-based, human; conditions: in the presence of the blocker
# Excerpt: as §1
# HSC-3 cells [2] = assay: Cell proliferation, colorimetric assay MTS; format: cell-based, human
# Experimental: FIG. 1: (A) Heatmap contrast of average variance stabilizing transformation (VST) of ORAI1, ORAI2 and ORAI3 genes between normal (control: N=3 samples) and tongue cancer patients (N=10 samples). Statistical significance was analyzed using the Benjamini-Hochberg FDR (5%) and fold change of 1.5. Both FDR values and fold change were generated using DESeq2. (B-D) show haematoxylin and eosin (H&E) staining (left) and immunofluorescence staining of ORAI1 (right) in the boxed areas of tongue tissue sections showing normal (B), dysplastic (C) and invasive tumor (D) phenotypes. Nuclear staining by 4′,6-diamidino-2-phenylindole (DAPI) is shown in blue. Scale bar, 200 μm. […] Quantification of SOCE corrected for baseline Ca^2+ levels as Δpeak (F−F0) (right). (L) and (M) show cell proliferation measured using MTS comparing control HSC-3 cells compared to shORAI1 (ORAI1 KD) (L) or compared to CRISPR/Cas9 ORAI1 (ORAI1 KO) (M).
# To address the role of SOCE in key cancer hallmarks such as cell proliferation in oral cancer, we used two independent approaches to eliminate ORAI1 expression in HSC-3 cells. […] To address the effects of ORAI1 in cell proliferation, we analyzed HSC-3 cells in the presence of synta-66 and in which ORAI1 expression had been reduced by shORAI1 or CRISPR/Cas9 editing using the colorimetric assay MTS (FIG. 1, L and M).
# HSC-3 cells [3] = assay: Bulk RNA-seq of CPA stimulated HSC-3 cells; format: cell-based, human
# T1 sequence (Q8NER1 whole entry): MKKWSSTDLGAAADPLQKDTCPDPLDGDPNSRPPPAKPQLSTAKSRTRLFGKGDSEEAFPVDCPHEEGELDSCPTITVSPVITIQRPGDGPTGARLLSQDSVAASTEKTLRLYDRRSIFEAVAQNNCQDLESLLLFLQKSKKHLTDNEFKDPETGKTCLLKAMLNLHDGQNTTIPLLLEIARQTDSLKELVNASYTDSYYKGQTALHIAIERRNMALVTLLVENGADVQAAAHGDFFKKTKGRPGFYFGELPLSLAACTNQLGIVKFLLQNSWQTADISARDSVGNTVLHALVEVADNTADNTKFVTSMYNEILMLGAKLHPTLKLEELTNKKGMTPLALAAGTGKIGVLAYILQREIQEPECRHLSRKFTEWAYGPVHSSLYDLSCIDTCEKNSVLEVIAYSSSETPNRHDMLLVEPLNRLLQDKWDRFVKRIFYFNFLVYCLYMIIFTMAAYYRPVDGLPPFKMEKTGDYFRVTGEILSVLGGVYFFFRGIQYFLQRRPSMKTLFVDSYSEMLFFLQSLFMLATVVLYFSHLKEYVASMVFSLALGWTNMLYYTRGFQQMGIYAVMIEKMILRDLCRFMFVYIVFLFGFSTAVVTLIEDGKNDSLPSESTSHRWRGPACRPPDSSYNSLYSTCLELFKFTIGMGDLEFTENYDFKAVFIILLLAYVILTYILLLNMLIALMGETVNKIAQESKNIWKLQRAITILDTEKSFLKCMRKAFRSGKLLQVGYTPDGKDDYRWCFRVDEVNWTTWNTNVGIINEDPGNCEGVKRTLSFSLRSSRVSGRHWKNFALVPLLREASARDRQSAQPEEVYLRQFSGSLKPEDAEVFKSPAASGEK
# T2 sequence (Q96QT4 whole entry): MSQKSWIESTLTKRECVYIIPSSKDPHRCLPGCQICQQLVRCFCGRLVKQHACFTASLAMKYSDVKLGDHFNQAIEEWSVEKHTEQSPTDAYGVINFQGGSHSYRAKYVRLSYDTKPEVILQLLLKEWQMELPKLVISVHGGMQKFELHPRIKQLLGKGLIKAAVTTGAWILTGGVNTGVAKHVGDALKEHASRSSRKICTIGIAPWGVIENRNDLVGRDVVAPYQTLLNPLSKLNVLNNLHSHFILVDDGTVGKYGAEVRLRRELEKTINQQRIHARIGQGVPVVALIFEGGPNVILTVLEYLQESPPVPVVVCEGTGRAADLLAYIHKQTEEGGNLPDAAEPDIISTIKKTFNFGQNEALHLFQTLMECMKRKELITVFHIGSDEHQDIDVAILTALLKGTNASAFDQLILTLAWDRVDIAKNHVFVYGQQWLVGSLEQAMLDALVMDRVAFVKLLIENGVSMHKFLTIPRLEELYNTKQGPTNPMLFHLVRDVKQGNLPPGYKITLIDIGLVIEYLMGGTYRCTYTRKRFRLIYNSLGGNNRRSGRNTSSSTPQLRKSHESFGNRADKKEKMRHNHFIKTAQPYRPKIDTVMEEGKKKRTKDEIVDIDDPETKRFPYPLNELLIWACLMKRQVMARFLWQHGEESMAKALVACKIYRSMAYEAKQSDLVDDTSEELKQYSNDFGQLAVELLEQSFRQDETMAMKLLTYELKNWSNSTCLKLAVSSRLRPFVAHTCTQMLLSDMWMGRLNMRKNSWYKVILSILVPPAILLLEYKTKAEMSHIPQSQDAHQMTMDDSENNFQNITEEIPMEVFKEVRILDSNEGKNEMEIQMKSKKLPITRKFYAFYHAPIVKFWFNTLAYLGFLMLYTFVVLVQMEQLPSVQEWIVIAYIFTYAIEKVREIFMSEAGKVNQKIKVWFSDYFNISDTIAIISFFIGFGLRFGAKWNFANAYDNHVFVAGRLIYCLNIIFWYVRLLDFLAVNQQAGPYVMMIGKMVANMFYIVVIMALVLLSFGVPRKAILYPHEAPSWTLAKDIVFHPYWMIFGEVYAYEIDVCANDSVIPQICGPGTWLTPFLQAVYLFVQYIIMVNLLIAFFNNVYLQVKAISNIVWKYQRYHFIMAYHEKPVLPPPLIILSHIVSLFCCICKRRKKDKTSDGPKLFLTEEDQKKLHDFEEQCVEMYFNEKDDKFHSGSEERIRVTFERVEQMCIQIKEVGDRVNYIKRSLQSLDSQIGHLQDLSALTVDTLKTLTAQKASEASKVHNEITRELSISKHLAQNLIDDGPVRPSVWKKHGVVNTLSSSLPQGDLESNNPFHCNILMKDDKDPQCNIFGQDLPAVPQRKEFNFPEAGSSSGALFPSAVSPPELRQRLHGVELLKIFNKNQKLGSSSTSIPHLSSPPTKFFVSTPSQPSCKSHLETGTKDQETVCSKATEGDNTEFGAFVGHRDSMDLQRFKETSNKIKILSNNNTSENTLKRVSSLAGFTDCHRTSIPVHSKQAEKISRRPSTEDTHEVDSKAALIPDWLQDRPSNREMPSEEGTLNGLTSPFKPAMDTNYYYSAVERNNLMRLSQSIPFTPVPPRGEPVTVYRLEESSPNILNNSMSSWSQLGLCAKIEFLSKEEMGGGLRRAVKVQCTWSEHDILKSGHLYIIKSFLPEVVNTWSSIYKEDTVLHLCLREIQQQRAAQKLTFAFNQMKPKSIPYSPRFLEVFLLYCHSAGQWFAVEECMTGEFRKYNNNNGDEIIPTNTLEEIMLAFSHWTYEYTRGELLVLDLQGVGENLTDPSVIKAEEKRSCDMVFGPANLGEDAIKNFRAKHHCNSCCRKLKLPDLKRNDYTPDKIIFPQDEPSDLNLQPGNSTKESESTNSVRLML
structure (smiles),measurement,setting,value
"CC(=O)C1=C(O)[C@@H]2[C@H]3c4c[nH]c5cccc(c45)C[C@H]3C(C)(C)N2C1=O [CPA, cyclopiazonic acid]",time of maximal effect on MMP1 gene expression,"[1]; HSC-3 cells, CPA stimulation",3 h
COc1cc(CNC(=O)CCCC/C=C/C(C)C)ccc1O [capsaicin],increase in cytosolic Ca2+,TRPV1,failed to evoke an increase
Oc1ccc2c3c1O[C@H]1c4oc5ccccc5c4C[C@@]4(O)[C@@H](C2)N(CC2CC2)CC[C@]314 [naltriben],increase in cytosolic Ca2+,TRPM7,failed to evoke an increase
COc1ccc(OC)c(-c2ccc(NC(=O)c3ccncc3F)cc2)c1 [synta-66],SOCE,SOCE in HSC-3 cells,significantly reduced; also recorded: abolished
same,SOCE,SOCE in SCC-9 cells,significantly reduced
same,proliferation compared to control cells,HSC-3 cells [2],significantly decreased
same,effect on the CPA-elicited increase in MMP1 gene expression,[1]; HSC-3 cells stimulated with CPA,attenuated the increase
same,"mRNA level of pain modulators (VEGF-A, B and C, NGF, TLR2, PTGS2)",HSC-3 cells [3],down-regulated
same,number of MMP genes significantly down-regulated,"HSC-3 cells [3]; out of >21 genes in the MMP family, FDR<0.05",8
